The results in this text go back to US10851069B2, “Compositions of crystallized hydrophobic compounds and methods of making and using same” (Massachusetts Institute of Technology, priority 2016, dated 2020).

Series [1] relates to inflammatory macrophage markers Sphk1, TNFα, Arg1, IL1. As to the kind of experiment: NanoString multiplexed gene expression analysis of retrieved capsules. The settings on record: amorphous drug-loaded capsules, 2 weeks IP; CSF1R-targeting agents compared. It counts as in vivo, C57BL/6 mice. Here is the method: RNAs for mock-implanted (mock) controls, or for various drug-loaded 0.5 mm diameter alginate sphere-bearing mice (n=4/group) were isolated from tissue samples taken at various time points after implantation, as described. Respective RNAs were quantified, diluted to the appropriate concentration (100 ng/μl), and then 500 ng of each sample was processed according to NanoString manufacturer protocols for expression analysis via our customized multiplexed gene mouse macrophage subtyping panel. RNA levels (absolute copy numbers) were obtained following nCounter (NanoString Technologies Inc., Seattle, Wash.) quantification, and group samples were analyzed using nSolver analysis software (NanoString Technologies Inc., Seattle, Wash.).

A short description of series [2]: In vitro drug release from alginate capsules loaded with crystalline or amorphous formulations. The settings on record: accelerated release conditions (+ SDS). It counts as physicochemical. Here is the method:
Release study was carried out in 3 different media, a normal saline-Isopropyl alcohol (10%) mixture, a phosphate buffer (pH 7.4), or for accelerated condition with phosphate buffered saline (pH 7.4) either with 0.1% w/v or 03% w/v SDS. Release study at NS+10% IPA was carried out in 2 ml medium at 37° C. Sampling was carried out by replacement of 1.5 ml of release medium by total replacement of release medium with fresh medium. […] For release in accelerated condition (PBS+SDS), the same time points were followed while 20 μl of drug loaded capsules were incubated in 2 ml release medium to achieve sink conditions. Drug concentration in samples was measured by reverse phase HPLC on C-18 column with a mobile phase or using UV calibrated system. An isocratic mode was set at a flow rate of 0.5-2 ml/min and a different wave-length of nm and 20-50 μl of samples was injected into an HPLC system (Waters, LC-Module-I) or UV analyzed. Calibration curves were prepared in concentration range of 0.05-10 μg/ml. Using prepared calibration curves, drugs concentration in different release samples were calculated.

A further series relates to C57BL/6 mice. As to the kind of experiment: Naked (non-encapsulated) drug crystals injected IP with 500 μm alginate spheres, 2 weeks. It counts as in vivo. Here is the method: Naked crystals of GW2580 or saline-only (no drug control) were delivered intraperitoneally along with 500 μm alginate spheres for 2 weeks to C57BL/6 mice. […] Brightfield and fluorescence imaging was used to emphasize the respective presence or lack of fibrotic overgrowth on retrieved alginate spheres from either saline (control) or crystalline GW2580 treatment groups (FIG. 17C). […] GW2580 crystal testing (at doses of 0.5 and 5 mg/SC site) was also extended into the SC implant space with other immunogenic materials, ceramic glass (GL) and polymer polystyrene (PS). […] All animal protocols were approved by the MIT Committee on Animal Care, and all surgical procedures and post-operative care was supervised by MIT Division of Comparative Medicine veterinary staff. Immune-competent male non-diabetic or STZ-induced diabetic C57BL/6 mice (Jackson Laboratory, Bar Harbor, Me.) were anesthetized with 3% isoflurane in oxygen and had their abdomens shaved and sterilized using betadine and isopropanol. Preoperatively, all mice also received a 0.05 mg/kg dose of buprenorphine subcutaneously as a pre-surgical analgesic, along with 0.3 mL of 0.9% saline subcutaneously to prevent dehydration. A […] incision was made along the midline of the abdomen and the peritoneal lining was exposed using blunt dissection. The peritoneal wall was then grasped with forceps and a 0.5-1 mm incision was made along the linea alba. A desired volume of spheres (all materials without islets, as well as SLG20 spheres encapsulating rat islets) were then loaded into a sterile pipette and implanted into the peritoneal cavity through the incision. The incision was then closed using 5-0 taper-tipped polydioxanone (PDS II) absorbable sutures. The skin was then closed over the incision using a wound clip and tissue glue. At desired time points post-implantation or transplantation (with encapsulated islets), as specified in figures, mice were euthanized by CO2 administration, followed by cervical dislocation. In certain instances, 5 ml of ice cold PBS was first injected in order perform an intraperitoneal lavage to rinse out and collect free-floating intraperitoneal immune cells. An incision was then made using the forceps and scissors along the abdomen skin and peritoneal wall, and intraperitoneal lavage volumes were pipetted out into fresh 15 ml falcon tubes (each prepared with 5 ml of RPMI cell culture media). Next, a wash bottle tip was inserted into the abdominal cavity. KREBS buffer was then used to wash out all material spheres from the abdomen and into petri dishes for collection. After ensuring all the spheres were washed out or manually retrieved (if fibrosed directly to intraperitoneal tissues), they were transferred into 50 mL conical tubes for downstream processing and imaging. After intraperitoneal lavage and sphere retrieval, remaining fibrosed intraperitoneal tissues were also excised for downstream FACS and expression analyses. Single-cell suspensions of freshly excised tissues were prepared using a gentle MACS Dissociator (Miltenyi Biotec, Auburn, Calif.) according to the manufacturer's protocol. Single-cell suspensions were prepared in a passive PEB dissociation buffer (1×PBS, pH 7.2, 0.5% BSA, and 2 mM EDTA) and suspensions were passed through 70 μm filters (Cat. #22363548, Fisher Scientific, Pittsburgh, Pa.). This process removed the majority of cells adhered to the surface (>90%). […]

On to `COc1ccc(COc2ccc(Cc3cnc(N)nc3N)cc2OC)cc1` [GW2580, 5-[[3-Methoxy-4-[(4-methoxyphenyl)methoxy]phenyl]methyl]-2,4-pyrimidinediamine], for which the gene expression responses result in series [1] was “almost identical gene expression responses”. The drug release profile result is listed as “Higher drug release” in series [2] (amorphous form in 2000 μm alginate capsules) and “released the drug more slowly initially, but continued releasing drugs for a much longer period of time” in series [2] (pure crystalline formulations in 2000 μm alginate capsules). Besides, the “crystals in IP lavage liquid (differential interference contrast imaging)” value in the series on C57BL/6 mice (2 weeks after implantation, 1 week since last crystal injection) is on record as “many crystals remained within the IP space”. In addition, the “fibrosis of retrieved alginate microspheres (phase contrast)” value in the series on C57BL/6 mice (daily amorphous drug, 3 mg/day, total 45 mg over 2 weeks) is reported as “fibrosis-free”; in the series with C57BL/6 mice (naked drug crystals, 4.5 mg once per week, 9 mg total), “fibrosis-free”; in the series with C57BL/6 mice (weekly amorphous drug), “not effective”. The “macrophage levels on microspheres (FACS)” value in the series on C57BL/6 mice (naked crystals, 2 weeks) was “significant reductions in macrophage levels”.
